The results in this text go back to patent US20100098657A1, “Method of Treating Cancer with Immunomodulatory Compounds and IgG” (priority 2007, published 2010).

Peptide text beside a SMILES is read from it.

Data set [1] concerns Rituximab-coated CD20+ Jeko-1 (mantle cell lymphoma) cells. The data set can be described thus: ADCC assay: NK cell-mediated killing of Rituximab-coated CD20+ Jeko-1 cells. The class given is cell-based, human. The procedure:
(§1) Preparation of NK cells: Purified NK cells (5×10^4) were seeded in 96-well U-bottom plates in 100 μL of 10% RPMI-1640 medium, supplemented with human AB+ serum. […] The cells were then incubated at 37° C. overnight.
(§2) Preparation of Rituximab-coated target cancer cells: Various NHL cell lines (Namalwa, Raji, Farage, and Jeko-1) were treated with 20 μg/mL Rituximab (Rituximab, Genentech, Inc.) for 30 minutes at 37° C. Excess unbound Rituximab was then removed by a washing step.
[…] The cells were then co-incubated for 4 hours at 37° C.
(§3) Cytotoxicity analysis: NK cell cytotoxicity against the tumor cell lines was analyzed using a standard lactate dehydrogenase release assay (CytoTox 96 Non-radioactive Cytotoxicity Assay, Promega) to measure ADCC in a 50 μL aliquot of supernatant. The experimental release was corrected by subtraction of the spontaneous release of effector cells at the corresponding dilution. Spontaneous release from target cells alone was <15% of the maximum release as determined with target cells lysed in 1% Triton X-100.
(§4) Determination of effector: target ratio: Specific lysis for each effector-to-target (E:T) cell ratio was calculated using the following formula: % specific lysis=([experimental release−spontaneous release]/[maximum release−spontaneous release])×100.

Data set [2] deals with Rituximab-coated CD20+ Raji cells. Description: Monocyte-mediated lysis (ADCC) of Rituximab-coated Raji cells. The class given is cell-based, human. The protocol:
NK cells and monocytes were isolated from fresh, buffy-coated, whole blood by 30-minute incubation with RossetteSep cocktail (StemCell Technologies, Inc.) followed by Ficoll-Hypaque density gradient centrifugation. CD56+ NK cells were isolated to ˜85% purity and CD14+ monocytes were isolated to ˜80% purity as determined by flow cytometry.
as §2, §3, §4
To evaluate monocyte ADCC, similar methods were used to prepare the monocytes.

The subject of data set [3] is Rituximab-treated target cells. The data set can be described thus: ADCC in the presence of anti-Fas-L or granzyme inhibitor. The class given is cell-based. Conditions: lenalidomide plus Rituximab. The text has this:
Lenalidomide addition had no effect on perforin production, however (FIGS. 6B and 6C).

For the next data set, the system named is granzyme B. The data set can be described thus: NK cell granzyme B production. The class given is cell-based, human. Particulars: inhibitor 40 μM/mL added 1 hour prior to lenalidomide and IL-2. The procedure:
(§5) To determine whether lenalidomide enhances IFN-γ production, the following assay was performed. Human IgG (Sigma), at a concentration of 100 μg/mL was coated onto 96-well, flat-bottom plates at 4° C. overnight. The unbound IgG was then washed away. […] Lenalidomide (Revlimid®, Celgene Corporation, Summit, N.J.) was added to the wells in the concentration range of 0.008-5 μM. After a 48-hour incubation, the supernatants were harvested and interferon-gamma (IFN-γ), as well as granzyme B and perforin levels were measured.

The next data set concerns perforin. Description: NK cell perforin production. The class given is cell-based, human. Particulars: inhibitor 40 μM/mL added 1 hour prior to lenalidomide and IL-2. The procedure: as §5
The test system of a further data set is pPLC-γ2. The data set can be described thus: Immunoblot analysis of pPLC-γ2. The class given is cell-based. Conditions: IL-12 plus IgG. The procedure: (§6) FIG. 7 is a panel of bar graphs showing the quantitation of an immunoblot comparison of cells treated with either IL-12 alone, IgG alone, IL-12 plus IgG, or IL-12 plus IgG plus lenalidomide (at 0.1 μM to 10 μM).
(§7) Additionally, administration of the immunomodulatory compound lenalidomide was capable of increasing both pPLC-γ2 and pERK levels (FIGS. 7B and 7C). Increase in the levels of these proteins were also observed in connection with pomalidomide (FIGS. 13A and 13B). PLC-γ2 is involved in the maturation and activation of NK cells and triggers the release of lytic granules (Regunathan et al., 2006, Jour. Immunol 175:749-754, which is incorporated by reference herein in its entirety). PLC-γ2 also induces IFN-γ production and is necessary for cytotoxicity and chemokine production.
(In general: Immunoblotting shows a protein as a band on a membrane.)

The subject of data set [4] is Rituximab-coated Raji cells. Description: ADCC assay: NK cell specific lysis of Rituximab-coated Raji cells. The class given is cell-based, human. The protocol: as §1, §2
Addition of Rituximab-coated target cells to NK cells: The Rituximab-coated target cells (5×103/100 μL/well) were added to the pretreated effector NK cells at a ratio of 10:1. The cells were then co-incubated for 4 hours at 37° C.
as §3, §4
Enhancement of NK cell cytotoxicity by immunomodulatory compounds lenalidomide and pomalidomide was assessed following procedures substantially similar to those described in Section 6.3, above.

Data set [5] deals with Src homology-2 containing inositol 5′-phosphatase 1 (phospho-SHIP-1). The data set can be described thus: Immunoblot analysis of phospho-SHIP-1. The class given is cell-based. Conditions: IL-12 plus IgG; lenalidomide 10 μM. The procedure: as §6
SHIP-1 is a negative regulator of cell proliferation, survival, and activation and also a negative regulator of Fc-γ and cytokine receptor-mediated signaling (Parihar et al., 2005, Cancer Res. 65:9099-9107). The inhibition of phospho-SHIP-1 increases IFN-γ release following NK cell stimulation with IgG and IL-12 (Parihar et al., 2005, Cancer Res. 65:9099-9107, which is incorporated by reference herein in its entirety) and thus may contribute to the mechanism of action of lenalidomide.

Another data set deals with Fas-L. Description: Fas-L expression on CD56+ NK cells (flow cytometry). The class given is cell-based, human. Particulars: FIG. 12. The procedure:
Cytometry was undertaken on 50 μL samples containing 1×10^6 cells/mL in washing buffer, 2% FBS with 0.1% NaN3 in PBS. Fluorochrome-conjugated antibodies, unconjugated antibodies, and isotype control mAb were obtained from PharMingen (San Diego, Calif.). The cells were stained with anti-CD56-PE, anti-FasL-FITC or isotype control mAb (1 μg/10^6 cells), and analyzed by flow cytometry according to the manufacturer's instructions.

Another data set has as its system pERK. Description: Immunoblot analysis of pERK. The class given is cell-based. Conditions: IL-12 plus IgG. The protocol: as §6, §7
The subject of another data set is NK cells. Description: NK cell chemokine/cytokine production in response to Trastuzumab-coated SK-BR3 cells. The class given is cell-based, human. The procedure: As shown herein, immunomodulatory compounds, either alone or in combination with other agents, can alter the expression of several growth factors.
The effects of immunomodulatory compounds lenalidomide and pomalidomide on NK cell chemokine/cytokine production in response to Trastuzumab-coated SK-BR3 cells were assessed using procedures substantially similar to those described in Section 6.6., above.

Data set [6] deals with Trastuzumab-coated SK-BR-3 cells. Description: NK cell cytotoxicity against Trastuzumab-coated SK-BR-3 cells. The class given is cell-based, human.
Data set [7] relates to Cetuximab-coated HCT-116 cells. The data set can be described thus: NK cell cytotoxicity against Cetuximab-coated HCT-116 cells. The class given is cell-based, human. Particulars: presence of IL-2.
Where [8] appears, read: presence of immobilized IgG and IL-2.

In the case of “Rituximab: anti-CD20 antibody Rituximab (Rituxan®)”, in data set [1] (Rituximab-coated cells without lenalidomide, E:T 50:1), the NK cell-mediated killing amounted to 70%. Moreover, in data set [1] (single agent, background killing=40%), the “increase in tumor cell killing above background” value is reported as “approximately 30%”. The same compound came in with a maximum killing activity in data set [2] (Rituximab-coated cells, no immunomodulatory compound, E:T 50:1) of about 30%.

For the compound `CC[C@H](C)[C@H](NC(C)=O)C(=O)N[C@@H](CCC(=O)O)C(=O)N[C@H](C(=O)N[C@H](C=O)CC(=O)O)[C@@H](C)O` [granzyme B inhibitor II] (Ac-IETD-aldehyde), the “prevention of ADCC” value in [3] is “totally prevented”. The “effect on IL-2 stimulated granzyme B production” value with granzyme B is recorded as “abrogated”. Also, the “effect on IL-2-stimulated perforin production” value with perforin was “inactive”.

Consider `Nc1cccc2c1C(=O)N(C1CCC(=O)NC1=O)C2=O` (stereo not drawn) [pomalidomide, 1,3-dioxo-2-(2,6-dioxopiperidin-3-yl)-4-aminoisoindoline], for which the pPLC-γ2 levels entry with pPLC-γ2 was “Increase”. Also, in [4] (presence of IL-2 (FIG. 8B/9B)), the NK cell cytotoxicity entry is “significantly increases”. Moreover, the NK cell cytotoxicity result in data set [4] (presence of IL-12 (FIG. 8E/9E)) is “significantly increases”. The “levels of phospho-SHIP-1” value in data set [5] is “decreased”. Moreover, the “NK cell Fas-L expression, results compared with lenalidomide” value with Fas-L was “similar”. Moreover, in the data set on pERK, the pERK levels entry was “Increase”. Also, in the data set on NK cells (compound alone), the “production of any chemokines/cytokines” value is “did not induce”. In the data set on NK cells (setting [8]), the “production of GM-CSF” value is “dose-dependently enhanced”, the “production of IL-8” value was “dose-dependently enhanced”, the “production of IP-10” value was “dose-dependently enhanced” and the “production of MCP-1” value is “dose-dependently enhanced”. In addition, in the data set with NK cells (setting [8]), the “production of MIP-1α” value is “dose-dependently enhanced”, the “production of MIP-1β” value was “not” and the “production of RANTES” value is “dose-dependently enhanced”. In addition, the NK cell cytotoxicity entry in [6] (presence of IL-2) is reported as “significantly increases”. Moreover, the NK cell cytotoxicity entry in data set [6] (presence of IL-12) is listed as “significantly increases”. Further, the NK cell cytotoxicity result in data set [7] is listed as “significantly increases”. Also, the monocyte-mediated lysis entry in data set [2] (data not shown) is reported as “enhance”.
